The subject of one experiment is soil A. Description: soil incubation, NH4+ and NO3- in soil A. The note with it: 21 days. Here is the method:
Soils used in these studies were air-dried, ground and sieved (2 mm) prior to use. Soil microcosm incubations were carried out in 250 mL polypropylene specimen containers (Sarstedt, Germany), containing 20 g oven dry-weight equivalent of soil. Microcosms were treated with half the volume of water required to meet the desired water-filled pore space (WFPS %) of 60% and pre-incubated at 25° C. for seven days to revive soil microbial activity. Following pre-incubation, the remaining volume to reach the WFPS % was applied as one of the treatment solutions: (1) fertiliser ((NH4)2SO4,) 100 mg kg^−1, (2) fertiliser+0.5 mol % 4-MPT, (3) fertiliser+2.5 mol % 4-MPT, (4) fertiliser+5 mol % 4-MPT or (5) fertiliser+5 mol % compound 1, with three replicates of each treatment per time interval (n=3). Throughout the incubation period soil microcosms were kept aerated by removing the lid for 10 minutes every 2-3 days to allow gas exchange, and moisture levels were replenished via addition of Milli-Q water as required. At the end of the desired incubation period (i.e., after 0, 3, 7, 14, and 21 days, respectively), soil microcosms were removed and destructively sampled by treating with 2 M aqueous potassium chloride solution (KCl, 100 mL) and shaking for 1 h. Soil-KCl solutions were filtered (Whatman No. 42), and the filtrates were stored at −20° C. until the conclusion of the experiment, when all KCl extracts were analysed for the concentration of soil mineral nitrogen from ammonium (NH4^+—N) and from nitrate (NO3^−—N; the conversion of NO2 to NO3^− in soils is very rapid) after appropriate dilutions using Segmented Flow Analysis (San++, Skalar, Breda, The Netherlands). Results are reported as the mean of three replicates, errors reported are standard errors of the mean. Errors associated with raw data were carried through calculations using standard error propagation protocols.
To determine the nitrification inhibitory effect of 4-MPT in vivo, soil incubations were performed by measuring concentration-time profiles for NH4^+ and NO3^− in an acidic Australian soil (soil A, pH=5.9) over 21 days. 4-MPT was tested at three different concentrations (0.5 mol %, 2.5 mol % and 5 mol % of applied fertiliser-N) and compared with the alkyl-substituted compound 1 (5 mol % of applied fertiliser-N) to confirm the requirement of the N-propargyl substitutent for inhibitory activity (FIG. 5).

The subject of a further experiment is N. europaea. As to the kind of experiment: O2 consumption measurements. The note with it: [NH4+] 3 mM, 20° C. In kind it is cell-based. Here is the method: O2 consumption rates of cell suspensions of N. europaea were measured using a Clark-type oxygen electrode (Rank Brothers, Cambridge, UK) mounted in a water-jacketed electrode chamber (3 mL capacity) that was connected to a recirculating cooler (Lauda, Austria). The data were recorded using a Data-trax™ (World Precision Instruments, UK) sensor data collection system. All measurements were taken at 20° C. and 1 mL final reaction solution volume. The polarizing voltage was set to 0.6 V. To calibrate the oxygen signal, an excess (approximately 50 mg) of Na2S2O4 was added to 1 mL of Milli-Q water to chemically remove dissolved O2. […] The voltage at saturated O2 concentration (“100% O2”) was determined by measuring the voltage of the equilibrated aerated reaction system consisting of 1 mL Milli-Q water. Sample measurements were taken as follows: The 1 mL reaction mixture, composed of 980 μL N. europaea cell solution in NaPB (OD600=0.8; corresponding to approximately 468 μg/L protein) was equilibrated for 5 min in the chamber until the voltage reading was stable. […] After 4 min of oxygen consumption (a linear rate coefficient of approximately kobs=k=274.7+20.0 nmol O2 L^−1 s^−1 was determined), 10 μL of the inhibitor stock solution of MPT in DMSO (1.2 mM and 0.6 mM) were added via a 10-μL Eppendorf pipette through a capillary opening, ensuring the emergence of the pipette tip in the solution. […]

This note sets out measurements from patent US20260215425A1, “NITRIFICATION INHIBITORS” (The University of Melbourne, priority 2022, published 2026).

Consider `C#CCn1cc(C)nn1` [Compound 4-MPT, 4-Methyl-1-(prop-2-yn-1yl)-1H-1,2,3-triazole], for which the “NH4+ loss / conversion in soil” value is “noticeably delayed NH4^+ loss within the first 15 days” in the experiment on soil A (0.5 mol % of applied fertiliser-N), “quantitatively suppress NH4^+ conversion” in the experiment on soil A (2.5 mol % of applied fertiliser-N) and “quantitatively suppress NH4^+ conversion” in the experiment with soil A (5 mol % of applied fertiliser-N). Moreover, the figures for the “observed rate coefficient kobs for the O2 consumption” value in the experiment on N. europaea ([MPT]=0.6 mM) and with N. europaea ([MPT]=1.2 mM) were 0.0027 s⁻¹ and 0.0045 s⁻¹, respectively.
